These results are taken from US8637542B2, “Kinase inhibitors and methods of use” (Intellikine, Inc., priority 2008, dated 2014).

Common to all, as to type: biochemical
Experiment [1] addresses T1, mTORC (Homo sapiens, UniProt P42345).
T1 construct: purchased Invitrogen
Briefly: In-vitro mTORC inhibition assay. As to the method: The compounds described herein can be tested against recombinant mTOR (Invitrogen) in an assay containing 50 mM HEPES, pH 7.5, 1 mM EGTA, 10 mM MgCl2, 2.5 mM, 0.01% Tween, 10 μM ATP (2.5 μCi of […]), and 3 μg/mL BSA. Rat recombinant PHAS-1/4EBP1 (Calbiochem; 2 mg/mL) is used as a substrate. Reactions are terminated by spotting onto nitrocellulose, which is washed with 1M NaCl/1% phosphoric acid (approximately 6 times, 5-10 minutes each). Sheets are dried and the transferred radioactivity quantitated by phosphorimaging.
Other kits or systems for assaying mTOR activity are commercially available. For instance, one can use Invitrogen's LanthaScreen™ Kinase assay to test the inhibitors of mTOR disclosed herein. This assay is a time resolved FRET platform that measures the phosphorylation of GFP labeled 4EBP1 by mTOR kinase. The kinase reaction is performed in a white 384 well microtitre plate. The total reaction volume is 20 ul per well and the reaction buffer composition is 50 mM HEPES pH7.5, 0.01% Polysorbate 20, 1 mM EGTA, 10 mM MnCl2, and 2 mM DTT. In the first step, each well receives 2 ul of test compound in 20% dimethylsulphoxide resulting in a 2% DMSO final concentration. Next, 8 ul of mTOR diluted in reaction buffer is added per well for a 60 ng/ml final concentration. To start the reaction, 10 ul of an ATP/GFP-4EBP1 mixture (diluted in reaction buffer) is added per well for a final concentration of 10 uM ATP and 0.5 uM GFP-4EBP1. The plate is sealed and incubated for 1 hour at room temperature. The reaction is stopped by adding 10 ul per well of a Tb-anti-pT46 4EBP1 antibody/EDTA mixture (diluted in TR-FRET buffer) for a final concentration of 1.3 nM antibody and 6.7 mM EDTA. The plate is sealed, incubated for 1 hour at room temperature, and then read on a plate reader set up for LanthaScreen™ TR-FRET. Data is analyzed and IC50s are generated using GraphPad Prism 5.

Experiment [2] concerns the target T2, PI3K δ (Homo sapiens, UniProt O00329).
T2 construct: purchased Upstate
Briefly: In-vitro PI3K δ inhibition assay. As for the experimental part:
(§1) Class I PI3-Ks can be either purchased (p110α/p85α, p110β/p85α, p110β/p85α from Upstate, and p110γ from Sigma) or expressed as previously described (Knight et al., 2004). IC50 values are measured using either a standard TLC assay for lipid kinase activity (described below) or a high-throughput membrane capture assay. Kinase reactions are performed by preparing a reaction mixture containing kinase, inhibitor (2% DMSO final concentration), buffer (25 mM HEPES, pH 7.4, 10 mM MgCl2), and freshly sonicated phosphatidylinositol ([…]). Reactions are initiated by the addition of ATP containing 10 μCi of γ-32P-ATP to a final concentration 10 or 100 μM and allowed to proceed for 5 minutes at room temperature. For TLC analysis, reactions are then terminated by the addition of 105 μl 1N HCl followed by 160 μl CHCl3:MeOH (1:1). […] The TLC plates are then dried, exposed to a phosphorimager screen (Storm, Amersham), and quantitated. For each compound, kinase activity is measured at 10-12 inhibitor concentrations representing two-fold dilutions from the highest concentration tested (typically, 200 μM).
(§2) Other commercial kits or systems for assaying PI3-K activities are available. […] The plate is sealed, incubated for 1 hour at room temperature, and then read on an appropriate plate reader. Data is analyzed and IC50s are generated using GraphPad Prism 5.

In experiment [3] the target is T3, PI3K α (Homo sapiens, UniProt P42336).
T3 construct: purchased Upstate
T3 sequence (P42336 whole entry): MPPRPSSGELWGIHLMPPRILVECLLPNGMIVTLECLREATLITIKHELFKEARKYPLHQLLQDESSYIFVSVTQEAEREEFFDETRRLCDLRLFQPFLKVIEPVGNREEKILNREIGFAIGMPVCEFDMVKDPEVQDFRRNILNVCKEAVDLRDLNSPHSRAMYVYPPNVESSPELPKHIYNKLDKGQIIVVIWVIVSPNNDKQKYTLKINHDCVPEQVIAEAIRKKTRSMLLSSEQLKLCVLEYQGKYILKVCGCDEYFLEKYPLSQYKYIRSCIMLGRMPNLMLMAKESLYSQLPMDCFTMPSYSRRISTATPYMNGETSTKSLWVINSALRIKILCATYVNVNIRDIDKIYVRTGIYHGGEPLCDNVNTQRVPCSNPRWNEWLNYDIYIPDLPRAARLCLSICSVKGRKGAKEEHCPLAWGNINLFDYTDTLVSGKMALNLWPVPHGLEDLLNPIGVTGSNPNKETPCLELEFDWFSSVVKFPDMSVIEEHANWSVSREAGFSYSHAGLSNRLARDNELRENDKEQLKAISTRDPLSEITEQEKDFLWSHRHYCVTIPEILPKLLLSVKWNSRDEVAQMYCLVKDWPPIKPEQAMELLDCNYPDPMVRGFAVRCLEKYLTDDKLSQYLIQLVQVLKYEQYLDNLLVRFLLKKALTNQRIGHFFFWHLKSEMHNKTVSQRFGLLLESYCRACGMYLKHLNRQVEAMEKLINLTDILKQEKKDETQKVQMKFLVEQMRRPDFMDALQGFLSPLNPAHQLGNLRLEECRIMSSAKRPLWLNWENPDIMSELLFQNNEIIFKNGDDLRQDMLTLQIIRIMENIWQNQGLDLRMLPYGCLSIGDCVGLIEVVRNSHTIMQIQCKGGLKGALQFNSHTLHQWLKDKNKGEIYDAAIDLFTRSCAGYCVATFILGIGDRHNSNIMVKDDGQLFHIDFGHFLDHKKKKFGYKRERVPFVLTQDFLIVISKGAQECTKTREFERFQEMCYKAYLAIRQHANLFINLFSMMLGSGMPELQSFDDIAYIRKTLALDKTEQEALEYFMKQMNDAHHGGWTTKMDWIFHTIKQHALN
T3 sequence (P27986 whole entry partner): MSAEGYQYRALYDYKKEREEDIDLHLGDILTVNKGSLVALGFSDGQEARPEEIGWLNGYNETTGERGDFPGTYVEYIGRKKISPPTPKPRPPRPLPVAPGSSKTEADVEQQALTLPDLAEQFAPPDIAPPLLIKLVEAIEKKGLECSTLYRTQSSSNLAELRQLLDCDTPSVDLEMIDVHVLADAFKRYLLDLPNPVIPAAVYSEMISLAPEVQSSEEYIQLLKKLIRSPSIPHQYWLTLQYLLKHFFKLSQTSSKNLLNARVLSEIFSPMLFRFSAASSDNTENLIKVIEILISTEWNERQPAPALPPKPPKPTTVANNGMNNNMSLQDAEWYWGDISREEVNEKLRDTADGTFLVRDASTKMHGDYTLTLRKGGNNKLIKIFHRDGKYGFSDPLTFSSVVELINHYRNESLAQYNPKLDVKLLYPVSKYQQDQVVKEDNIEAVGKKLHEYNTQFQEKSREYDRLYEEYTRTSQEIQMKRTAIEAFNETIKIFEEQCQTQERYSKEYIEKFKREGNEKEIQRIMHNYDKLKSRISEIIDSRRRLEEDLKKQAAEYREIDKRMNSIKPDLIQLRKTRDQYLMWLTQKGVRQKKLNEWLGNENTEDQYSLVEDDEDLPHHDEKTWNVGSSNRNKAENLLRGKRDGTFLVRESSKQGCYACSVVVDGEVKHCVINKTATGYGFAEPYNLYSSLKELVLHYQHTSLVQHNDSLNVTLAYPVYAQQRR
Briefly: In-vitro PI3K α inhibition assay. As to the method: Class I PI3-Ks can be either purchased (p110α/p85α, p110β/p85α, p110β/p85α from Upstate, and p110γ from Sigma) or expressed as previously described (Knight et al., 2004). IC50 values are measured using either a standard TLC assay for lipid kinase activity (described below) or a high-throughput membrane capture assay. Kinase reactions are performed by preparing a reaction mixture containing kinase, inhibitor (2% DMSO final concentration), buffer (25 mM HEPES, pH 7.4, 10 mM MgCl2), and freshly sonicated phosphatidylinositol ([…]). Reactions are initiated by the addition of ATP containing 10 μCi of γ-32P-ATP to a final concentration 10 or 100 μM and allowed to proceed for 5 minutes at room temperature. For TLC analysis, reactions are then terminated by the addition of 105 μl 1N HCl followed by 160 μl CHCl3:MeOH (1:1). The biphasic mixture is vortexed, briefly centrifuged, and the organic phase is transferred to a new tube using a gel loading pipette tip precoated with CHCl3. This extract is spotted on TLC plates and developed for 3-4 hours in a 65:35 solution of n-propanol:1M acetic acid. The TLC plates are then dried, exposed to a phosphorimager screen (Storm, Amersham), and quantitated. For each compound, kinase activity is measured at 10-12 inhibitor concentrations representing two-fold dilutions from the highest concentration tested (typically, 200 μM).
Other commercial kits or systems for assaying PI3-K activities are available. The commercially available kits or systems can be used to screen for inhibitors and/or agonists of PI3-Ks including but not limited to PI3-Kinase α, β, δ, and γ. An exemplary system is PI3-Kinase (human) HTRF™ Assay from Upstate. […] Briefly, the assay is a time resolved FRET assay that indirectly measures PI3 product formed by the activity of a PI3-K. The kinase reaction is performed in a microtitre plate (e.g., a 384 well microtitre plate). […] The plate is sealed, incubated for 1 hour at room temperature, and then read on an appropriate plate reader. Data is analyzed and IC50s are generated using GraphPad Prism 5.

In experiment [4] the target is T4, PI3K β (Homo sapiens, UniProt P42338).
T4 construct: purchased Upstate
T4 sequence (P42338 whole entry): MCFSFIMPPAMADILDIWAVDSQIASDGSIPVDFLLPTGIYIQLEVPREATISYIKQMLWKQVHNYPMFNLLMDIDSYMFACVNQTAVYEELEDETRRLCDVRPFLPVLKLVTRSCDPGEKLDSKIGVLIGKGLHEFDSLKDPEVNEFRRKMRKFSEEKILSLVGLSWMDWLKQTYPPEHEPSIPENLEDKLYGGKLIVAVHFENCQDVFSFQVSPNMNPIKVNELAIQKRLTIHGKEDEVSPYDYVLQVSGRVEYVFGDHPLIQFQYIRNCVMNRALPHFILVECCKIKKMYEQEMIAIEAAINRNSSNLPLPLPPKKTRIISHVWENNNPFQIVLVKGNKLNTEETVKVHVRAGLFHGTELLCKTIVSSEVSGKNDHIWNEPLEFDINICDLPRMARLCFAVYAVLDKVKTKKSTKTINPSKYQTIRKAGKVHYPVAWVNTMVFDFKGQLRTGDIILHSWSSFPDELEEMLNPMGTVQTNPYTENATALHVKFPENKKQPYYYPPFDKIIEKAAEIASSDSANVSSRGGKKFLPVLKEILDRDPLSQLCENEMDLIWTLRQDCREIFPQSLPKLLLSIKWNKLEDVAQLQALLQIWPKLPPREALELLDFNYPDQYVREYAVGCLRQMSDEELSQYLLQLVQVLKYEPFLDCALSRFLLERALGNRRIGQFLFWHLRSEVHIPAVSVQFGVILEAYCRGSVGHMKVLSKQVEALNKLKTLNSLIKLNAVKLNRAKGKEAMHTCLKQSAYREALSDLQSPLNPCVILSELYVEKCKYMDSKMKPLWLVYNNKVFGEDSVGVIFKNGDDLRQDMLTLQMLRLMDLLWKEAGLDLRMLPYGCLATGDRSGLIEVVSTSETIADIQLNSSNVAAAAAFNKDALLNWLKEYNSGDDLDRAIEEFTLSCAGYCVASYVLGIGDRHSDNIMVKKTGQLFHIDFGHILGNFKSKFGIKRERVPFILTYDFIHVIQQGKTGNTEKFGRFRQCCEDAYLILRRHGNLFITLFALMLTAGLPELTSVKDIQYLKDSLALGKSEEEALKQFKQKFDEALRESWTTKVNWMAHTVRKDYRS
T4 sequence (P27986 whole entry partner): as the sequence (P27986 whole entry partner) above
Briefly: In-vitro PI3K β inhibition assay. As for the experimental part:
as §1, §2

T1 sequence (P42345 1360-2549 limits assumed): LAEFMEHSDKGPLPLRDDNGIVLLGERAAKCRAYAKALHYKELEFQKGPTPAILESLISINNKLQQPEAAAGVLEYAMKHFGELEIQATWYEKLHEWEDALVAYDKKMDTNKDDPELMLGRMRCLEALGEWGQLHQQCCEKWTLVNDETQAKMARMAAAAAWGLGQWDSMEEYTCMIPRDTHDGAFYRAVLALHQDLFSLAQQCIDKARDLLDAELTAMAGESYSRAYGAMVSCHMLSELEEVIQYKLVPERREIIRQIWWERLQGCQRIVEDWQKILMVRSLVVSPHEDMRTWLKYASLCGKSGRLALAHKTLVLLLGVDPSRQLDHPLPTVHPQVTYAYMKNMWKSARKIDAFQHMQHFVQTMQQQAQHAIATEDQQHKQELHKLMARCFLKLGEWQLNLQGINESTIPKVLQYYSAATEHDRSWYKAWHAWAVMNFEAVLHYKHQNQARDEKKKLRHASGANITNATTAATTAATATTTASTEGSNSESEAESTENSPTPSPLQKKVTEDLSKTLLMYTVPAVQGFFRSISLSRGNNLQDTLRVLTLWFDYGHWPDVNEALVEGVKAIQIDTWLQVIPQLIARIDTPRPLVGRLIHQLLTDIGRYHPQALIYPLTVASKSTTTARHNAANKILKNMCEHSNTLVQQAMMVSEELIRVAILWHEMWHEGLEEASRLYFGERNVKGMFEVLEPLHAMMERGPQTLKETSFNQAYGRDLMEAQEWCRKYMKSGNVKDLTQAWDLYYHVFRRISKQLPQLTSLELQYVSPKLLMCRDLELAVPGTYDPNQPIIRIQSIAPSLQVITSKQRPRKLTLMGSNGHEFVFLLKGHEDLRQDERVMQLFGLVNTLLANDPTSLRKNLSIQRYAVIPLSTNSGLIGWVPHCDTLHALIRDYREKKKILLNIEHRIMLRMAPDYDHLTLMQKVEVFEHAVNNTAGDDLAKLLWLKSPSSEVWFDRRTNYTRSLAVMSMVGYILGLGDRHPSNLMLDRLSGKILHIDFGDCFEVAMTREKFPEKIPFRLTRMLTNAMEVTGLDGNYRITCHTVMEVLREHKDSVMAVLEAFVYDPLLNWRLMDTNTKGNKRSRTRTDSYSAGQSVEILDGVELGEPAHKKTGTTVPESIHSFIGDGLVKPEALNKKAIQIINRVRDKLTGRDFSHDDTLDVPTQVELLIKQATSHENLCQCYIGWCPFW

On to `CC(C)n1nc(-c2cc3cc(O)ccc3[nH]2)c2c(N)nccc21` [Compound 1], for which the IC50 in experiment [1] was at most 1000 nM.

`CC(C)n1nc(-c2cnc3[nH]ccc3c2)c2c(N)nccc21` [Compound 3]: the IC50 in experiment [1], in experiment [2], in experiment [3] and in experiment [4] was over 1000 nM each time.

Consider `CC(C)n1nc(-c2ccc3onc(N)c3c2)c2c(N)nccc21` [Compound 2], for which the IC50 in experiment [1] and in experiment [3] was over 1000 nM in each case.

Regarding `CC(C)n1nc(-c2ccc3oc(N)nc3c2)c2c(N)nccc21` [Compound 4], the IC50 in experiment [1] was at most 1000 nM; in experiment [3], over 1000 nM; in experiment [4] it was over 1000 nM.
